Data from patent US20150203444A1, “POLYMORPHS OF N-((S)-3-AMINO-1-(HYDROXYAMINO)-3-METHYL-1-OXOBUTAN-2-YL)-4-(((1R,2R)-2-(HYDROXYMETHYL)CYCLOPROPYL)BUTA-1,3-DIYNYL)BENZAMIDE” (Achaogen, Inc., priority 2011, published 2015).
Where a name gives a salt, the structure may show the parent alone.

Key:
[1] = Solid-state properties of the polymorphs (summary statement); assay type: physicochemical
[2] = Competitive slurry experiments (XRPD); assay type: physicochemical; conditions: competitive slurry of Forms A, B and C together, IPA:IBAc (10:90), room temperature
Description: Approximately 10 mg of Form A, B and C were weighed into 2.0-mL vials equipped with a stir bar. 0.5 mL of solvent was added and the resulting free flowing slurry was allowed to equilibrate with stirring at room temperature. Samples were pulled at one day and seven day time points, filtered through 0.45 micron centrifuge filters, dried overnight at room temperature under vacuum and analyzed by XRPD (see Table 7).

[3] = Stability at elevated temperature (XRPD form check and HPLC purity); assay type: physicochemical; conditions: for % AUC (Following exposure): HPLC purity after seven days at 60° C.; for % AUC (Control): HPLC purity, control before exposure
Description: Approximately 10 mg of Form A, Form B and Form C were weighed to individual 4-mL amber vials covered with a kimwipe and stored in an oven at 60° C. and ambient pressure. After seven days of exposure, the solids were be analyzed by XRPD to check for form conversion and HPLC for purity (see Table 5).

[4] = test system: Klebsiella pneumoniae ATCC43816; test: MIC by broth microdilution (CLSI), AKPN001; assay type: cell-based; conditions: ATCC43816, read-out: Minimum Inhibitory Concentration (MIC) AKPN001
Description: (§1) Bacterial isolates were cultivated from −70° C. frozen stocks by overnight passages at 35° C. in ambient air on Mueller-Hinton agar (Beckton Dickinson, Franklin Lakes, N.J.). Clinical isolates tested were obtained from various geographically diverse hospitals in the US and abroad (Focus Diagnostics, Herndon, Va. and JMI, North Liberty, Iowa). Quality control strains were from the American Type Culture Collection (ATCC; Rockville, Md.).
(§2) Minimum Inhibitory Concentrations (MICs) were determined by the broth microdilution method in accordance with the Clinical and Laboratory Standards Institute (CLSI) guidelines. In brief, organism suspensions were adjusted to a 0.5 McFarland standard to yield a final inoculum between 3×10^5 and 7×10^5 colony-forming units (CFU)/mL. Drug dilutions and inocula were made in sterile, cation adjusted Mueller-Hinton Broth (Beckton Dickinson). An inoculum volume of 100 μL was added to wells containing 100 μL of broth with 2-fold serial dilutions of drug. All inoculated microdilution trays were incubated in ambient air at 35° C. for 18-24 h. Following incubation, the lowest concentration of the drug that prevented visible growth (OD600 nm<0.05) was recorded as the MIC. Performance of the assay was monitored by the use of laboratory quality-control strains and levofloxacin, a compound with a defined MIC spectrum, in accordance with CLSI guidelines. […]

[5] = test system: E. coli ATCC25922; test: MIC by broth microdilution (CLSI), AECO001; assay type: cell-based; conditions: Escherichia coli, ATCC25922, read-out: Minimum Inhibitory Concentration (MIC) AECO001
Description: as §1, §2

[6] = test system: clinical isolate of Pseudomonas aeruginosa expressing a normal level of efflux activity; test: MIC by broth microdilution (CLSI), APAE002; assay type: cell-based; conditions: read-out: Minimum Inhibitory Concentration (MIC) APAE002
Description: as §1, §2

[7] = test system: Pseudomonas aeruginosa ATCC27853; test: MIC by broth microdilution (CLSI), APAE001; assay type: cell-based; conditions: ATCC27853, read-out: Minimum Inhibitory Concentration (MIC) APAE001
Description: as §1, §2

[8] = Stability at elevated humidity (XRPD form check); assay type: physicochemical; conditions: summary statement
Description: Approximately 30 mg of Form A, Form B and Form C were placed on an XRPD slide and kept inside a glass jar containing a water solution saturated with NaCl. The solution maintains 75% relative humidity inside the jar. The container was covered with aluminum foil to prevent exposure to light. The sample was kept in this environment for seven days at room temperature. After this time period the slide was removed from the chamber and analyzed immediately by XRPD (see Table 4).

Row | SMILES | Thermodynamic stability among the three polymorphic forms [1] | XRPD Final Form (1 day) [2] | % AUC (Following exposure) [3] [% AUC] | % AUC (Control) [3] [% AUC] | MIC [4] [µg/mL] | MIC [5] [µg/mL] | MIC [6] [µg/mL] | MIC [7] [µg/mL] | Hygroscopicity ([1]; solid) | Stability to prolonged thermal stress ([3]; summary statement) | Stability to exposure to elevated relative humidity [8]
1 | CC(C)(N)[C@H](NC(=O)c1ccc(C#CC#C[C@@H]2C[C@H]2CO)cc1)C(=O)NO [Form C, N—((S)-3-amino-1-(hydroxyamino)-3-methyl-1-oxobutan-2-yl)-4-(((1R,2R)-2-(hydroxymethyl)cyclopropyl)buta-1,3-diynyl)benzamide] | metastable | A + B | 95.5 | 99.0 | – | – | – | – | – | – | –
2 | CC(C)(N)[C@H](NC(=O)c1ccc(C#CC#C[C@@H]2C[C@H]2CO)cc1)C(=O)NO [I (trifluoroacetate salt), N—((S)-3-amino-1-(hydroxyamino)-3-methyl-1-oxobutan-2-yl)-4-(((1R,2R)-2-(hydroxymethyl)cyclopropyl)buta-1,3-diynyl)benzamide trifluoroacetate salt] | – | – | – | – | < 2 | < 2 | < 2 | < 2 | – | – | –
3 | CC(C)(N)[C@H](NC(=O)c1ccc(C#CC#C[C@@H]2C[C@H]2CO)cc1)C(=O)NO [Form A, N—((S)-3-amino-1-(hydroxyamino)-3-methyl-1-oxobutan-2-yl)-4-(((1R,2R)-2-(hydroxymethyl)cyclopropyl)buta-1,3-diynyl)benzamide] | – | A + B | 94.5 | 99.2 | – | – | – | – | moderately hygroscopic | – | –
4 | CC(C)(N)[C@H](NC(=O)c1ccc(C#CC#C[C@@H]2C[C@H]2CO)cc1)C(=O)NO [Form B, N—((S)-3-amino-1-(hydroxyamino)-3-methyl-1-oxobutan-2-yl)-4-(((1R,2R)-2-(hydroxymethyl)cyclopropyl)buta-1,3-diynyl)benzamide] | most thermodynamically stable | A + B | 97.4 | 99.6 | – | – | – | – | – | exhibited stability | exhibited stability
